# Measurements: patent US7601365B2, “Synergetic effects of HGF and antibacterial treatment” (Damavand Wound, AB, priority 2000, dated 2009)
# Values joined by “and” are separate entries in the source; they are usually repeats but may differ in a detail not shown here. Equal values may be shown once. Marks after values point to notes of the source that are not given here.
# What was measured:
# chronic leg ulcers [1] = format: in vivo, human
# Protocol: HGF in gel form was applied locally once daily for seven days in 15 of 19 chronic leg ulcers in eleven elderly patients in a pilot study. All patients had previously been treated with conventional methods and their leg ulcers had been in a rather stable condition for between one and fourteen years. Any signs of allergy, discomfort or pain were reported daily.
# (§1) Micro-circulation perfusion in ulcers compared to the intact contiguous skin was determined at the beginning, after one week and after three months (in 7 patients) and ulcer size and characteristics were also documented.
# In contrast to the patients with unfavourable healing (non-responders) the healing process in the responders began during treatment and continued afterwards. There was a statistically significant correlation (r=0.94, p<0.002) between enhanced micro-circulation and ulcer area reduction in the treated ulcers. Simultaneously antibacterial treatment in the ulcers with signs of infection enhanced the therapy results considerably. […] Micro-circulatory perfusion, which might reflect the angiogenic effect of HGF, was positively correlated to ulcer area reduction. Local treatment by HGF seems to have positive effect on nearby, not locally treated, ulcers indicating systemic effects. […] HGF and representative antibacterial treatment have synergetic effects in treatment of chronic leg ulcers.
# chronic leg ulcers [2] = assay: Micro-circulatory perfusion in ulcers by laser Doppler (LDPI); format: in vivo, human
# Protocol: The micro-circulation within the ulcers was measured using LDPI. The LDPI system (PIMLO, Lisca Development AB, Sweden) utilises the Doppler principle by freely impinging coherent laser light onto the tissue and processing the backscattered, Doppler broadened, light to estimate the tissue perfusion without touching the skin. The perfusion estimate is proportional to the product of the mean velocity and the concentration of the moving blood cells.
# as §1
# [3] = system: normal hairless skin in mice; assay: Local rhHGF on shaved normal hairless skin in mice, hair growth; format: in vivo
# Protocol: Eighteen black mice (14-16 weeks old and 21-29 g weight) were shaved on their back, causing two 1×1 cm patches on the right and left side. They were then divided into 3 groups. Group I (n=6, females), Group 2 (n=6 males) and Group 3 (n=6, 3 males and 3 females). Group 1 were treated locally on the right side by 0.70 μg/kg (12-18 ng/cm^2 hairless skin) recombinant human hepatocyte growth factor (rhHGF) daily in 10 days. In order to prepare HGF preparations, recombinant human HGF (rhHGF) was provided commercially from R&D systems Inc., Minneapolis, USA. Group 2 (n=6 males) received 0.35 μg/kg/day (5-10 ng/cm^2 hairless skin) on the right side in 10 days. Group 3, non-treated, served as the control group. […] Although some significant differences were not obviously seen in the hair growth under treatment we were surprised to see that the animals in Group 1 did show a full double-sided hair growth in 5 animals 2 days after the treatment was ended (day 12). The same process in Group 2 and group 3 did take much a longer time (day 20 and day 21, respectively).
# [4] = system: spontaneous fungal infections and ulcers; assay: Mice with spontaneous fungal infections and ulcers, Gentiana violet with or without rhHGF; format: in vivo; settings: local Gentiana violet once; the HGF mouse also rhHGF 10 ng subcutaneously
# Protocol: Two mice (23-25 g) with spontaneous fungal infections and ulcers on their backs were shaved and treated locally with Gentiana violet once. One of them was simultaneously treated with hepatocyte growth factor (rhHGF) 10 ng subcutaneously. The hair growth was fine as in the other places of body, in the mouse that received HGF and fungicidal treatment. […] This example confirms the morphogenic effects of HGF in recovering after treated infectious injuries (see FIG. 7).
# CCL-53.1 = assay: Restitution of scraped confluent monolayer; format: cell-based
# Protocol: The confluent monolayer of CCL-53.1 was scraped off, forming long wounds. The area not covered by cells finally disappeared, and restitution (in control medium with 15% horse serum and 2.5 % FBS) was completed at 72 h. The addition of HGF together with the addition of antibiotic agent (streptomycin and penicillin) to the culture medium improved the restitution of the damaged area more rapidly than the control medium (10 times at 24 h) as well as to a medium including HGF without added antibiotic agents.
# human skin fibroblasts = settings: more than 1.0 ng/ml of HGF added to cultures media; cited from earlier work
# [5] = contiguous non-treated ulcer in a locally treated patient, up to three months
molecule,measurement,setting,value
"HGF: recombinant human HGF (rhHGF) provided commercially from R&D systems Inc., Minneapolis, USA","Heal % (T), median",chronic leg ulcers [1]; 11 patients,84%
same,"Heal % (NT), first listed non-treated ulcer",chronic leg ulcers [1]; [5],100/100% and 100%
same,"Heal % (NT), second listed non-treated ulcer",chronic leg ulcers [1]; [5],100/100% and 92%
same,Signs of allergy or malignancy,"chronic leg ulcers [1]; human, in vivo",No signs of allergy or malignancy were observed
same,Patients with complete or partial healing,"chronic leg ulcers [1]; local HGF treatment, ulcers incurable for up to fourteen years",8/11
same,Cases with complete cure of ulcers,chronic leg ulcers [1]; local HGF with appropriate oral antibiotics at the same time,at least 4 cases
same,"Heal % (NT), mean, first listed ulcer",chronic leg ulcers [1]; non-treated ulcers,100%
same,"Heal % (NT), mean, second listed ulcer",chronic leg ulcers [1]; non-treated ulcers,96%
same,"Heal % (NT), median, first listed ulcer",chronic leg ulcers [1]; non-treated ulcers,100%
same,"Heal % (NT), median, second listed ulcer",chronic leg ulcers [1]; non-treated ulcers,96%
same,Course of ulcer after superinfection with resistant bacteria,"chronic leg ulcers [1]; one patient with venous insufficiency, no appropriate antibiotics (penicillin allergy)",the ulcer increased dramatically in size
same,"Heal % (T), the two ulcers of patient 7 with different healing",chronic leg ulcers [1]; patient 7,(59-88%)♦
same,"Heal % (T), mean","chronic leg ulcers [1]; sum of total area reduction divided by sum of total area, 11 patients",78* %
same,Ulcers with favourable healing (58-59%),chronic leg ulcers [1]; treated ulcers,two
same,Ulcers with excellent healing (84-99%),"chronic leg ulcers [1]; treated ulcers, in four patients",four
same,Ulcers with complete healing (100% area reduction),"chronic leg ulcers [1]; treated ulcers, in three patients",5/15
same,Ulcers with minimal improvement (25-30%) or relapse,"chronic leg ulcers [1]; treated ulcers, three patients",four
same,Healing of the four contiguous non-treated ulcers,chronic leg ulcers [1]; two patients,three healed completely and one excellent
same,"Circ (NT) ratio, mean",chronic leg ulcers [2]; non-treated ulcers,0.9/ND ratio
same,"Circ (NT) ratio, median",chronic leg ulcers [2]; non-treated ulcers,0.9/ND ratio
same,"Circ (T) ratio, mean",chronic leg ulcers [2]; treated ulcers,1.12 ratio
same,"Circ (T) ratio, median",chronic leg ulcers [2]; treated ulcers,1.23 ratio
same,Circ (T) ratio: relative change in local microcirculation,"chronic leg ulcers [2]; treated ulcers, before treatment vs one week later, one line per patient",1.29 ratio and 1.23 ratio and 1.28 ratio and 0.77 ratio and 0.72 ratio and 0.97 ratio and 1.48 ratio
same,Signs of non-tolerance or diseases under or after treatment,"[3]; 0.70 or 0.35 μg/kg/day locally, 10 days",None of the treated animals did show any sign of non-tolerance or diseases
same,Day of full double-sided hair growth,"[3]; Group 1: 0.70 μg/kg locally daily in 10 days, in 5 animals",12 days
same,Day of full double-sided hair growth,[3]; Group 2: 0.35 μg/kg/day locally in 10 days,20 days
same,Local dose that accelerates hair growth,[3]; normal hairless skin in mice,not less than 0.7 μg/kg
same,Quality of hair growth,[4],fine
same,Restitution of the damaged area relative to control medium,"CCL-53.1; HGF together with streptomycin and penicillin in the culture medium, at 24 h",10 times
same,HGF concentration at which the effect is detectable,CCL-53.1; dose-dependent effect,≥ 5 ng/mL
same,DNA synthesis,human skin fibroblasts,doubled
"CN(C)c1ccc(C(=C2C=CC(=[N+](C)C)C=C2)c2ccc(N(C)C)cc2)cc1.[Cl-] [Gentiana violet, reference compound]",Quality of hair growth,[4],rough and irregular
